Experimental data: US20200079786A1, “ANALOGS OF […] AS SOLUBLE EPOXIDE HYDROLASE INHIBITORS” (UNIVERSITAT DE BARCELONA, priority 2015, published 2020)
≈ marks a conversion by molar mass, not a printed value. Where two headings read alike, the source gives them in different places.

Tests used:
recombinant human sEH = target: T1, recombinant human sEH (Homo sapiens, UniProt P34913); assay: In vitro determination of sEH inhibition activity (fluorescent assay, PHOME substrate); format: biochemical; conditions: mean ± Standard Error, min. three replicates, read-out: IC50 (nM) ± SE, sEH inhibition activity
T1 construct: purchased Cayman Chemical 10011669
T1 sequence (P34913 1-555): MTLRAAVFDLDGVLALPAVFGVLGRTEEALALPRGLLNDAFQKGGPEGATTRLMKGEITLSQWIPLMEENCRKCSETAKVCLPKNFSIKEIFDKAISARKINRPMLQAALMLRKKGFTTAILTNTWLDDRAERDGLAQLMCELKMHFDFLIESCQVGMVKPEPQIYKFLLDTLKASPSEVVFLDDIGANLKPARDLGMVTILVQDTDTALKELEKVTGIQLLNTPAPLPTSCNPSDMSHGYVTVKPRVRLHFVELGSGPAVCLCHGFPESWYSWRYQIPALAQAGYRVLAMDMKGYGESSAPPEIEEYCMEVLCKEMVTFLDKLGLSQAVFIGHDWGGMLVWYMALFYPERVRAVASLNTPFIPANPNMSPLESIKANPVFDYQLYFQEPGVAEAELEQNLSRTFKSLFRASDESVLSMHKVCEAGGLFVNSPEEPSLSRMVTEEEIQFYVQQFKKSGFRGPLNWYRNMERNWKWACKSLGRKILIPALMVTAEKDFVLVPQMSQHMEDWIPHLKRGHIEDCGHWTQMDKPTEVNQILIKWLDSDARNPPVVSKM
Procedure: 3-(Phenyl-oxiranyl)-acetic acid cyano-(6-methoxy-naphthalen-2-yl)-methyl ester (PHOME; from Cayman Chemical, item number 10009134; CAS 1028430-42-3); cf. N. M. Wolf et al., Anal. Biochem. 2006, vol. 355, pp. 71-80.
Solutions: • Assay buffer: Bis/Tris HCl 25 mM pH 7.0 containing 0.1 mg/mL of bovine serum albumin (BSA). • PHOME at 200 μM in DMSO. • Solution of recombinant human sEH (Cayman Chemical, item number 10011669), diluted with assay buffer. • Inhibitors dissolved in DMSO at appropriated concentrations.
In a black 96-well plate (Greiner Bio-One, item number 655900), fill the background wells with 90 μL and the positive control and inhibitor wells with 85 μL of assay buffer. Add 5 μL of DMSO to background and positive control wells, and then add 5 μL of inhibitor solution in inhibitor wells. Add 5 μL of the solution of hsEH to the positive control and inhibitor wells and mix several time. Prepare a 1/21 dilution of the solution of PHOME with assay buffer according to final volume required, and then add 105 μL of each well. Shake carefully the plate for 10 seconds and incubate for 5 minutes at room temperature. […] Results were obtained by regression analysis from at least three data points in a linear region of the curve. IC50 values are average of minimum three independent replicates.

CYP1A2 = target: T2, CYP1A2 (Homo sapiens, UniProt P05177); assay: Inhibition of human cytochrome P450 CYP1A2; format: in vitro ADME; conditions: human cytochrome P450 enzyme
T2 sequence (P05177 1-516): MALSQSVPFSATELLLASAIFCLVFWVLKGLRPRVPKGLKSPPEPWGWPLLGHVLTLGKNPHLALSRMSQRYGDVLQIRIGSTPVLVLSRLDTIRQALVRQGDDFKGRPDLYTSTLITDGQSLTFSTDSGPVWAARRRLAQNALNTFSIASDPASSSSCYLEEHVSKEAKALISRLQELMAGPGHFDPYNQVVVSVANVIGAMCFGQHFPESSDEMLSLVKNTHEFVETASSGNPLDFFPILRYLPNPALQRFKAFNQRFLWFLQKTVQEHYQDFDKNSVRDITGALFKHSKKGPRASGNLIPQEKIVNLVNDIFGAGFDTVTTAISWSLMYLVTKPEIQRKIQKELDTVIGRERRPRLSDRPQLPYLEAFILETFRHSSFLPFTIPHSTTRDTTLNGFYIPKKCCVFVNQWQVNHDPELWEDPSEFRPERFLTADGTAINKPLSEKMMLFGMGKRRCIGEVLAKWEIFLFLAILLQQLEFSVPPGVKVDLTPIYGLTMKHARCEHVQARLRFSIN
Excerpt: (§1) The epoxidation of arachidonic acid (AA) by selected cytochrome P450 epoxygenases generates epoxyeicosatrienoic acids (EETs). These EETs show anti-inflammatory, antihypertensive, analgesic, angiogenic, and antiatherosclerotic effects in rodents and humans. sEH converts EETs to their corresponding dihydroxyeicosatrienoic acids (DHETs), whereby the biological effects of EETs are diminished, eliminated, or altered. Among the P450 enzymes, it is known that CYP2C19 and CYP1A2 have the highest formation rate of EETs from AA (cf. A. A. El-Sherbeni et al. “Repurposing resveratrol and fluconazole to modulate human cytrochrome P450-mediated arachidonic acid metabolites”, Molecular Pharmaceutics 2016, vol. 13, pp. 1278-1288). For this reason, a highly desirable aspect of any new sEH inhibitor is selectivity in front of CYP2C19 and CYP1A2.

CYP2C19 = CYP2C19 (Homo sapiens, UniProt P33261); assay: Inhibition of human cytochrome P450 CYP2C19; format: in vitro ADME; conditions: human cytochrome P450 enzyme
Excerpt: as §1

[1] = Determination of cytotoxicity in THLE-2 cells (ATP viability); format: cell-based; conditions: human
Procedure: Cytotoxic effects of assayed compounds were tested using the immortalized human liver cell line THLE-2 (ATCC CRL-2706). Cells were cultured in BEGM medium (Clonetics # CC-4175) containing all the supplements kit except additional EGF and G418. Medium was completed by adding 0.7 μg/mL phosphoethanolamine, 0.5 ng/mL epidermal growth factor, antibiotics (penicillin and streptomycin) and 10% fetal bovine serum (FBS).
Cells were plated in 96-well black microplates at 10,000 cells/well density and were incubated at 37° C. (5% CO2, 95% humidity) for 24 h to allow the cells to adhere and form a monolayer. Test compounds were solubilized in 100% DMSO at a concentration curve way and then diluted with cell culture medium containing 10% DMSO. The final concentrations of the test compounds (1% DMSO) ranged from 0-100 μM in a final volume of 200 μL. Microplates were maintained at 37° C. (5% CO2, 95% humidity) during 3 days. Following this 72 h exposure to test compounds, cell viability in each well was determined by measuring the concentration of cellular adenosine triphosphate (ATP) using the ATP1Step Kit as described by the manufacturer (Perkin-Elmer). In a typical procedure, 50 μL of cell reagent is added to all wells of each test plate followed by incubation for 10 min at room temperature on an orbital shaker. ATP concentration was determined by reading chemical luminescence using the Envision plate reader (PerkinElmer). The percentage of viable cells relative to the non-drug treated controls was determined for each well and LC50 values were calculated as concentrations projected to kill 50% of the cells following a 72 h exposure, an average of minimum two independent replicates.

[2] = Determination of water solubility (nephelometry); format: physicochemical; conditions: aqueous with cosolvent or surfactant or cyclodextrin, kinetic from dmso stock; 5% DMSO: 95% PBS buffer, 37° C., read after 2 and 4 h; read-out: S (solubility)
sEH in AR42j cells = target: T3, sEH in AR42j cells (Rattus norvegicus, UniProt P80299); assay: In vitro determination of sEH inhibition activity in AR42j cells (cell-based fluorescent assay); conditions: AR-42J, read-out: % Inhn. ± SE (100 μM), sEH inhibition activity in cell culture
T3 sequence (P80299 1-554): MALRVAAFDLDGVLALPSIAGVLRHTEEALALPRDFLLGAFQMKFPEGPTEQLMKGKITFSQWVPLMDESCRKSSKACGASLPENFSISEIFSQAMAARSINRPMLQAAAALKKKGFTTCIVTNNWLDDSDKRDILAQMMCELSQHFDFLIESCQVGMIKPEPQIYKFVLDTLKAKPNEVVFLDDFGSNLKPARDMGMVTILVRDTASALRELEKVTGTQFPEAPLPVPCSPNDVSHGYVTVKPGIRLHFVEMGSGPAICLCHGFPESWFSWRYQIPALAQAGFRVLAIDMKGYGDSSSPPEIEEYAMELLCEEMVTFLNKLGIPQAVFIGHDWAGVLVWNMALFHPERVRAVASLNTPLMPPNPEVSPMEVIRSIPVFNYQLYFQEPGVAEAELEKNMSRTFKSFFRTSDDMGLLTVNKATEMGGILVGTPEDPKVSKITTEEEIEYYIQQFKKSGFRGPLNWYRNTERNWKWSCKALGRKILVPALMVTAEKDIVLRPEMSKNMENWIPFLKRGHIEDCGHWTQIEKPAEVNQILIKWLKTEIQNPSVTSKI
Procedure: Solutions Preparation: • Assay buffer 1×: add 10 mL of the CBA-Buffer (10×) to 90 mL of distilled water. • Lysis Buffer: add 50 μL of the CBA Digitonin Solution to 10 mL of Buffer Assay 1×. • Substrate Solution: dilute 10 μL of CBA sEH Substrate with 10 mL of Assay Buffer 1×. • Standards: preparation of 7 concentrations of CBA 6-methoxy-2-naphtalaldehyde from 0 until 2 M with Assay Buffer 1×. • sEH Positive Control: Prepare another stock A (1 μg/ml: 1 μL CBA sEH Positive Control+1 mL Assay Buffer 1×). From the already prepared stock A, prepare 250 μL of sEH (10 ng/mL): 2.5 μL sEH stock A+250 μL Assay Buffer 1×). • sEH Inhibitor AUDA: dilute 10 μL CBA sEH Inhibitor with 500 ml Assay Buffer 1×. • Inhibitors dissolved in DMSO at appropriated concentrations.
Seed cells in a 96-well plate at a density of (2×10^4)-(5×10^4) cells/well in 100 μL of culture medium with or without compounds to be tested. Incubation of the cells in a CO2 incubator at 37° C. for 48 hours. Aspirate the culture medium and add 200 μL of Assay Buffer 1× to each well. Centrifuge the plate at 800 rmp for 5 minutes. Aspirate the supernatant and add 100 μL of Lysis Buffer to each well. Incubate with gentle shaking on an orbital shaker for 30 minutes at room temperature. Centrifuge the plate at 3000 rpm for 20 minutes at 4° C. Transfer 90 μL of the supernatants to the 96-Well Solid Plate (black). Add 10 μL Assay Buffer 1× or 10 μL of the AUDA solution to appropriate wells. For positive control wells, add 100 μL of the 10 ng/mL sEH Positive Control to two wells. Add 200 μL of 6-methoxy-2-Naphthaldehyde Standards to corresponding wells of the black plate. Add 100 μL of the sEH Substrate Solution to each well, except the standards. Incubate the plate at 37° C. for 30 minutes. […] The intensity of fluorescence was used to analyze and calculate inhibition percentages, shown in the Table as average of minimum three independent replicates.

[3] = Parallel artificial membrane permeation assay for blood-brain barrier (PAMPA-BBB); format: in vitro ADME, porcine; conditions: PBS:EtOH (70:30)
Procedure: The in vitro permeability (Pe) of the test compounds through lipid extract of porcine brain membrane was determined. Assayed compounds were tested using a mixture of PBS:EtOH (70:30). […] From this equation and taking into account the limits established by Di et al. for BBB permeation, the ranges of permeability were established, as follows.

Chain of CYP2C19 (P33261 whole entry): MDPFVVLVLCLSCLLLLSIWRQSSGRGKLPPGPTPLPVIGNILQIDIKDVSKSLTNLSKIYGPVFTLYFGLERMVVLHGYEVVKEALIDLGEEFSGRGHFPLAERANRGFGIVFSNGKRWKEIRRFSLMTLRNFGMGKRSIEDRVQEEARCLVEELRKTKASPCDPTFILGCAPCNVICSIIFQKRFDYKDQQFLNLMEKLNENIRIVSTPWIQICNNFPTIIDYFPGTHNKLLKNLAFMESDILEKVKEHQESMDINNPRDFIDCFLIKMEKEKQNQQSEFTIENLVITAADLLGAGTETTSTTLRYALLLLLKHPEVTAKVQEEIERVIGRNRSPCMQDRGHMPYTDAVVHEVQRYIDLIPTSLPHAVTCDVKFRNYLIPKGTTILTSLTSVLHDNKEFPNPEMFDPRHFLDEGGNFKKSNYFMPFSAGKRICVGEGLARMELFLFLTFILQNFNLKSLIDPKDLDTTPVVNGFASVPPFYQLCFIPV

SMILES | IC50 (recombinant human sEH) [nM] | solubility [2] [µM] | inhibition at 1 µM (CYP1A2) [%] | inhibition at 1 µM (CYP2C19) [%] | CC50 at 72 h ([1]; THLE-2 cells, 72 h exposure, 0-100 μM, read-out: LC50 (μM), cytotoxicity) [µM] | inhibition at 100 µM (sEH in AR42j cells) [%] | CC50 at 72 h [1] [µM] | CNS prediction [3]
CC(=O)N1CCC(NC(=O)NC23CC4CC(CC(C4)O2)C3)CC1 [If, 1-(2-oxaadamantan-1-yl)-3-(1-acetylpiperidin-4-yl)urea] | 19.8 ± 6.2 | > 100 | ≤ 6 | ≤ 6 | > 100 | 42.1 ± 5 | – | –
O=C(Nc1ccc(F)c(F)c1F)NC12CC3CC(C1)CC(c1ccccc1)(C3)O2 [Ie, 1-(3-phenyl-2-oxaadamantan-1-yl)-3-(2,3,4-trifluorophenyl)urea] | 21.3 ± 4.3 | – | – | – | – | – | – | –
CC12CC3CC(C1)CC(NC(=O)Nc1ccc(F)c(F)c1F)(C3)O2 [Ib, 1-(3-methyl-2-oxaadamantan-1-yl)-3-(2,3,4-trifluorophenyl)urea] | 21.3 ± 5.4 | 63 (≈ 21.4 µg/mL) | – | – | – | – | > 100 | CNS+ (Compounds of high BBB permeation (CNS+): Pe (10^6 cm s^−1)>5.181)

Further compounds by falling IC50 (recombinant human sEH), results first:

IC50 (recombinant human sEH) [nM] | solubility [2] [µM] | SMILES | inhibition at 1 µM (CYP1A2) [%] | inhibition at 1 µM (CYP2C19) [%] | CC50 at 72 h ([1]; THLE-2 cells, 72 h exposure, 0-100 μM, read-out: LC50 (μM), cytotoxicity) [µM] | inhibition at 100 µM (sEH in AR42j cells) [%] | CC50 at 72 h [1] [µM] | CNS prediction [3]
17.5 ± 3.6 | – | O=C(Nc1ccc(F)c(F)c1F)N[C@@]12CC3C[C@H](C1)C[C@](C1CCCCC1)(C3)O2 (stereo in doubt) [Id, 1-(3-cyclohexyl-2-oxaadamantan-1-yl)-3-(2,3,4-trifluorophenyl)urea] | – | – | – | – | – | –
8.1 ± 3.2 | 77 (≈ 27.3 µg/mL) | CCC12CC3CC(C1)CC(NC(=O)Nc1ccc(F)c(F)c1F)(C3)O2 [Ic, 1-(3-ethyl-2-oxaadamantan-1-yl)-3-(2,3,4-trifluorophenyl)urea] | – | – | – | – | > 100 | CNS+ (Compounds of high BBB permeation (CNS+): Pe (10^6 cm s^−1)>5.181)
